According to patent publication US20190381071A1, “METHODS AND COMPOSITIONS FOR TREATING AND/OR PREVENTING THE PROGRESSION AND/OR ONSET OF AGE-RELATED NEURODEGENERATION” (Enterin, Inc., priority 2018, published 2019):
“Also recorded” adds a separate entry of the source.

Assays:
[1] = U.S. Pat. No. 6,143,738; Ahima et al. (2002); cited from earlier work
HIV = conditions: tissue culture; U.S. Pat. No. 5,763,430; cited from earlier work
adult mouse = experiment: Neuroregeneration in adult mouse brain; type: in vivo
Text: The hypothalamus is of particular interest because it happens to be the site of localization of Aminosterol 1436 in the brain.

B6D2F1 (BDF1) mice = experiment: Dose response of growth delay in BDF1 mice (Example 1, FIG. 2); type: in vivo; conditions: for age at which animals reached maturity: male BDF1 mice, controls 120 days; for delay in reaching maturity, as measured by end weight: vs control
Protocol: While all animals reached the mature weight of about 40 grams, the control animals reached maturity at 120 days, and the animals that received 5 and 10 mg/kg of Aminosterol 1436 reached maturity at 150 and 255 days, respectively.
An experiment was conducted to explore the dose response to a delay in growth of B6D2F1 (BDF1) mice to Aminsoterol 1436.
30 day old male BDF1 mice received either vehicle or Aminosterol 1436 intraveneously (IV) at 5 mg/kg or 10 mg/kg (n=15 for each treatment arm) every 3 days until 51 days of age. The Aminosterol 1436 was administered as a aqueous solution in water. BDF1 mice are available from Charles River Laboratories. The animals were fed standard lab chow, offered ad libitum. The animals were weighed and body length measured every 5 days.
However, while the control animals reached maturity at 120 days, the animals that received 5 mg/kg of Aminosterol 1436 reached maturity at 150 days, corresponding to a 25% delay in reaching maturity, as measured by end weight. […] Most importantly, both treated and untreated animals reached normal adult dimensions, albeit at different rates.

phosphatase PTP1B = target: T1, phosphatase PTP1B (Homo sapiens, UniProt P18031); conditions: Lantz et al., 2010; cited from earlier work
T1 sequence (P18031 1-435): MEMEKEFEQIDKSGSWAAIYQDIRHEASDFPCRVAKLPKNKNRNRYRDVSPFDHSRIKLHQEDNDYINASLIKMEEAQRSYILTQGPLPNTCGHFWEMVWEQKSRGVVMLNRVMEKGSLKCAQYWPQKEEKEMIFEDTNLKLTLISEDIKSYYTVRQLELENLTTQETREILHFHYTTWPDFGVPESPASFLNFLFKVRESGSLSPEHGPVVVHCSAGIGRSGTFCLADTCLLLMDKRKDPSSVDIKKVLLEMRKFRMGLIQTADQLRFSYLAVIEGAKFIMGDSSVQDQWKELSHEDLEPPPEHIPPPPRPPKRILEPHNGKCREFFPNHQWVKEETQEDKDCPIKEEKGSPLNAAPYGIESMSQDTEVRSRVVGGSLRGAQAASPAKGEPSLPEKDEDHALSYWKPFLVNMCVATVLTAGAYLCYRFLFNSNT

[2] = Brain localisation of radioactive Aminosterol 1436 after IV or ICV administration (FIG. 1); type: in vivo; conditions: radioactive compound, rat, IV via peripheral vein or injected into 3rd ventricle (ICV)
Text: The exact mechanism by which Aminosterol 1436 achieves its effect on preventing, delaying onset, and/or treating neurodegeneration, delaying maturity, retarding aging, and increasing potential lifespan is not known. However, without being bound by theory, Applicant theorizes that the effect of Aminosterol 1436 is likely in part due to the drug's effects on the hypothalamus within the brain of the animal.

C57BL/6 males = experiment: Growth delay in C57BL/6 mice (Example 2, FIG. 3); type: in vivo; conditions: for weight: 10 mg/kg i.p. every 3 days for two doses
Protocol: Animals were then weighed and body length measured once weekly for a period of 40 days.
An experiment was conducted to determine whether treatment of animals with Aminosterol 1436 would delay growth of the animal.
C57BL/6 males (12-16 grams) were administered either vehicle or 10 mg/kg (i.p.) of Aminosterol 1436 every 3 days for two doses, for a total of 20 mg/kg over a 6 day period. The mice were about 3 weeks old, and there were 10 mice/arm. The animals were weighed and body length measured once weekly for a period of 40 days.
The results shown in FIG. 3 indicate that growth rates of the animals were slowed upon administration of Aminosterol 1436, which is consistent with the results shown in FIG. 2 and described in Example 1.

| SMILES | appetite suppression and weight loss [1] | antiviral activity against HIV (HIV) | neuroregeneration (adult mouse) | number of cells in brain areas (adult mouse; subependymal zone, granular layers of olfactory bulb, medial and lateral hypothalamus, thalamus) | growth rate slower than the controls (by increasing weight) (B6D2F1 (BDF1) mice; 5 mg/kg IV) | age at which animals reached maturity (B6D2F1 (BDF1) mice; 5 mg/kg IV every 3 days from 30 to 51 days of age) | delay in reaching maturity, as measured by end weight (B6D2F1 (BDF1) mice; 5 mg/kg IV) | growth rate slowed (by increasing weight) (B6D2F1 (BDF1) mice; 10 mg/kg IV) | age at which animals reached maturity (B6D2F1 (BDF1) mice; 10 mg/kg IV every 3 days from 30 to 51 days of age) | delay in reaching maturity, as measured by end weight (B6D2F1 (BDF1) mice; 10 mg/kg IV) | linear growth (B6D2F1 (BDF1) mice; 5 and 10 mg/kg IV, data not shown) | mature weight reached (B6D2F1 (BDF1) mice; all animals (5 mg/kg, 10 mg/kg and control)) | inhibition of PTP1B (phosphatase PTP1B) | accumulation in brain [2] | weight (C57BL/6 males; Day 0, control 16 g) | decrease in weight (C57BL/6 males; Day 0 to Day 40, 10 mg/kg i.p. x 2, control increase of 50%) | weight (C57BL/6 males; Day 40, control 24 g) |
| --- | --- | --- | --- | --- | --- | --- | --- | --- | --- | --- | --- | --- | --- | --- | --- | --- | --- |
| CC(C)[C@@H](CC[C@@H](C)[C@H]1CC[C@H]2[C@@H]3[C@H](O)C[C@H]4C[C@@H](NCCCNCCCCN)CC[C@]4(C)[C@H]3CC[C@]12C)OS(=O)(=O)O [squalamine, reference compound] | not shared with squalamine | – | – | – | – | – | – | – | – | – | – | – | – | – | – | – | – |
| CC(C)[C@@H](CC[C@@H](C)[C@H]1CC[C@H]2[C@@H]3[C@H](O)C[C@H]4C[C@@H](NCCCNCCCCNCCCN)CC[C@]4(C)[C@H]3CC[C@]12C)OS(=O)(=O)O [Aminosterol 1436, trodusquemine] | potent appetite suppression and promotion of dose-dependent weight loss | exhibits antiviral activity against HIV | stimulates neuroregeneration | increase | about 30% | 150 days | 25% | 50% | 255 days | 112.5% | slowed to a corresponding degree | about 40 grams | inhibit the phosphatase PTP1B | accumulation of Aminosterol 1436 within the centers of the brain that control growth, maturation, and senescence; also recorded: accumulates within the centers of the brain that control growth, maturation and senescence | 12 g | 8.3% | 11 g |
